Earlier results on one molecule are cited in patent EP1001773B1, “ORAL SOLID PHARMACEUTICAL COMPOSITIONS CONTAINING NICORANDIL FOR A MODULATED RELEASE AND THE PROCESS FOR THEIR PREPARATION” (Biomedica Foscama Industria Chimico-Farmaceutica S.p.A., priority 1997, dated 1999).

For this data set the following is noted: orally administered, conventional tablets; Am.J.Cardiol. 1989, 63, 25J-33J.

For the molecule `O=C(NCCO[N+](=O)[O-])c1cccnc1` [Nicorandil, N-(2-hydroxyethyl) nicotinamide nitric ester], the Tmax. was 30 min.
